Reference: US20070003671A1, “Two-part calcium fortified compositions and methods of making the same” (priority 2005, published 2007)

Experiments:
Format in all cases: physicochemical
[1] = Calcium salts, physical/chemical attributes in orange juice, 350 mg/100 mL calcium load; conditions: for Brix/Acid Ratio: unfortified juice 18.3
Source text: (§1) The flavor of orange juice, for example, can be characterized by a unique balance of sweetness resulting from the sugar content and tartness resulting from the acid content. A challenge of fortifying orange juice with nutritionally significant amounts of calcium is maintaining the sweet to tart balance. This balance can be expressed analytically as the Brix to acid ratio, as described above. The Brix component of the ratio is the measure of soluble solids in the composition often determined by a refractometer. The acid component can be determined by titration with a base such as sodium hydroxide. The Brix to acid ratio is an analytical representation or measure of the sweet to tart taste balance.
A variety of calcium salts, i.e., calcium components, were again evaluated to determine their effects on the Brix-acid ratio but this time at 350 mg/100 mL calcium load.

[2] = Calcium salts, physical/chemical attributes in orange juice, 450 mg/100 mL calcium load; conditions: for Brix/Acid Ratio: unfortified juice 18.3
Source text: as §1
A variety of calcium salts, i.e., calcium components, were evaluated to determine their effects on the Brix-acid ratio. In this evaluation, orange juices fortified with different calcium salts were prepared at 450 mg/100 mL of calcium load.

[3] = pH of a 20% slurry in water
Source text: Titratable acidity and pH can be used as measures of sour perception in, e.g., beverage applications. It is well known that acidity provides a flavor lift or increased perception of flavor in a beverage.

| Compound | Brix (48 hrs) [1] | Calcium in Juice (48 hrs) [1] [mg/100 mL] | Titratable Acidity (%) (48 hrs) [1] | pH (48 hrs) [1] | Brix/Acid Ratio [1] | Brix (48 Hours) [2] | Calcium - Juice (48 Hours) [2] [mg/100 mL] | Titratable Acidity (%) (48 Hours) [2] | pH (48 Hours) [2] | Brix/Acid Ratio [2] | pH of slurry [3] |
| --- | --- | --- | --- | --- | --- | --- | --- | --- | --- | --- | --- |
| N[C@@H](CCC(=O)[O-])C(=O)[O-].O.O.O.O.[Ca+2] [calcium L-glutamate tetrahydrate] | 13.41 | 161 | 0.621 | 4.42 | 21.6 | 13.81 | 207 | 0.627 | 4.47 | 22.0 | – |
| O.O.O=C([O-])[C@H](O)[C@@H](O)C(=O)[O-].[Ca+2] [calcium L-tartrate dihydrate] | 11.99 | 113 | 0.574 | 4.17 | 20.9 | 12.02 | 140 | 0.545 | 4.23 | 22.1 | – |
| O=C([O-])[O-].[Ca+2] [calcium carbonate] | 12.35 | 158 | 0.188 | 5.15 | 65.7 | 12.44 | 200 | 0.099 | 5.88 | 125.7 | – |
| O.O.[Ca+2].[Cl-].[Cl-] [calcium chloride dihydrate] | 12.54 | 163 | 0.618 | 3.88 | 20.3 | 12.70 | 206 | 0.620 | 3.84 | 20.5 | – |
| O=C[O-].O=C[O-].[Ca+2] [calcium formate] | 12.45 | 160 | 0.620 | 4.18 | 20.1 | 12.59 | 206 | 0.620 | 4.20 | 20.3 | – |
| O.O.O.O=C([O-])/C=C/C(=O)[O-].[Ca+2] [calcium fumarate trihydrate] | 13.56 | 158 | 0.643 | 3.99 | 21.1 | 12.96 | 202 | 0.659 | 4.01 | 19.7 | – |
| O.O=P([O-])([O-])OCC(O)CO.[Ca+2] (stereo not drawn) [calcium glycerophosphate monohydrate] | 12.54 | 145 | 0.602 | 4.42 | 20.8 | 12.73 | 187 | 0.598 | 4.50 | 21.3 | – |
| CC(O)C(=O)[O-].CC(O)C(=O)[O-].O.O.O.O.O.[Ca+2] (stereo not drawn) [calcium lactate pentahydrate] | 12.80 | 157 | 0.670 | 4.01 | 19.1 | 13.01 | 204 | 0.657 | 4.03 | 19.8 | – |
| O=C([O-])CC(O)C(=O)[O-].[Ca+2] (stereo not drawn) [calcium malate] | 12.54 | 166 | 0.635 | 4.15 | 19.7 | 12.80 | 213 | 0.641 | 4.17 | 20.0 | – |
| O.O=C([O-])CCC(=O)[O-].[Ca+2] [calcium succinate monohydrate] | 12.64 | 161 | 0.606 | 4.56 | 20.9 | 12.85 | 206 | 0.607 | 4.66 | 21.2 | – |
| O=P([O-])([O-])O.[Ca+2] [dicalcium phosphate anhydrous] | 11.97 | 156 | 0.677 | 4.04 | 17.6 | 12.04 | 203 | 0.674 | 4.04 | 17.8 | approximately 5.0 |
| O.O.O=P([O-])([O-])O.[Ca+2] [dicalcium phosphate dihydrate] | 12.33 | 141 | 0.667 | 4.17 | 18.5 | 12.26 | 181 | 0.682 | 4.21 | 18.0 | 7.4 |
| O.O=P([O-])(O)O.O=P([O-])(O)O.[Ca+2] [monocalcium phosphate monohydrate] | 12.53 | 164 | 1.083 | 3.76 | 11.6 | 12.92 | 207 | 1.238 | 3.69 | 10.4 | – |
| O=C([O-])CC(O)(CC(=O)[O-])C(=O)[O-].O=C([O-])CC(O)(CC(=O)[O-])C(=O)[O-].[Ca+2].[Ca+2].[Ca+2] [tri-calcium citrate] | 12.37 | 140 | 0.640 | 4.06 | 19.3 | 12.08 | 177 | 0.630 | 4.07 | 19.2 | – |
| O=P([O-])([O-])[O-].O=P([O-])([O-])[O-].[Ca+2].[Ca+2].[Ca+2] [tricalcium phosphate (fine), tricalcium phosphate] | 12.27 | 157 | 0.490 | 4.49 | 25.0 | 12.30 | 197 | 0.484 | 4.51 | 25.4 | – |
| O=P([O-])([O-])[O-].O=P([O-])([O-])[O-].[Ca+2].[Ca+2].[Ca+2] [tricalcium phosphate] | 12.39 | 147 | 0.530 | 4.34 | 23.4 | 12.40 | 182 | 0.561 | 4.37 | 22.1 | – |
| calcium ascorbate dihydrate | 13.41 | 160 | 0.618 | 4.16 | 21.7 | 13.99 | 195 | 0.648 | 4.23 | 21.6 | – |
| calcium aspartate | 13.11 | 159 | 0.617 | 4.24 | 21.2 | 13.42 | 187 | 0.610 | 4.28 | 22.0 | – |
| calcium gluconate monohydrate | 13.56 | 154 | 0.640 | 3.99 | 21.2 | 13.91 | 198 | 0.653 | 4.00 | 21.3 | – |
